Assay results taken from patent US20250066370A1, “BICYCLIC TRIAZINE DERIVATIVES FOR THE TREATMENT OF CANCER” (DEUTSCHES KREBSFORSCHUNGSZENTRUM, priority 2022, published 2025).

Columns and labels:
CDK2/CyclinE = CDK2/CyclinE (Homo sapiens (Human), UniProt P24941); test: CDK2/CycE kinase assay (TR-FRET); assay type: biochemical; conditions: 2 mM ATP (high ATP); median; read-out: CDK2/CyclinE, 2 mM ATP (high ATP), IC50 - [mol/l] (median)
Source text: CDK2/CycE-inhibitory activity of compounds of the present invention was quantified employing the CDK2/CycE TR-FRET assay as described in the following paragraphs.
Recombinant fusion proteins of GST and human CDK2 and of GST and human CycE, expressed in insect cells (Sf9) and purified by Glutathion-Sepharose affinity chromatography, were purchased from ProQinase GmbH (Freiburg, Germany). As substrate for the kinase reaction biotinylated peptide biotin-Ttds-YISPLKSPYKISEG (C-terminus in amid form) was used which can be purchased e.g. form the company JERINI peptide technologies (Berlin, Germany).
For the assay 50 nanoL of a 100 fold concentrated solution of the test compound in DMSO was pipetted into a black low volume 384 well microtiter plate or a black 1536 well microtiter plate (both Greiner Bio-One, Frickenhausen, Germany), 2 microL of a solution of CDK2/CycE in aqueous assay buffer [50 millimol/L Tris/HCl PH 8.0, 10 millimol/L MgCl2, 1.0 millimol/L dithiothreitol, 0.1 millimol/L sodium ortho-vanadate, 0.01% (v/v) Nonidet-P40 (Sigma)] were added and the mixture was incubated for 15 min at 22° C. to allow pre-binding of the test compounds to the enzyme before the start of the kinase reaction. Then the kinase reaction was started by the addition of 3 microL of a solution of adenosine-tri-phosphate (ATP, 3.33 millimol/L=>final conc. in the 5 microL assay volume is 2 millimol/L) and substrate (1.25 micromol/L=>final conc. in the 5 microL assay volume is 0.75 micromol/L) in assay buffer and the resulting mixture was incubated for a reaction time of 25 min at 22° C. The concentration of CDK2/CycE was adjusted depending of the activity of the enzyme lot and was chosen appropriate to have the assay in the linear range, typical concentrations were in the range of 10 ng/ml. The reaction was stopped by the addition of 3 microL of a solution of TR-FRET detection reagents (0.333 micromol/L streptavidine-XL665 [Cisbio Bioassays, Codolet, France] and 1.67 nanomol/L anti-RB (pSer807/pSer811)-antibody from BD Pharmingen [#558389] and 2 nanomol/L LANCE EU-W1024 labeled anti-mouse IgG antibody [Perkin-Elmer, product no. AD0077, as an alternative a Terbium-cryptate-labeled anti-mouse IgG antibody from Cisbio Bioassays can be used]) in an aqueous EDTA-solution (167 millimol/L EDTA, 0.2% (w/v) bovine serum albumin in 100 millimol/L HEPES pH 7.5).
The resulting mixture was incubated 1 h at 22° C. to allow the formation of complex between the phosphorylated biotinylated peptide and the detection reagents. Subsequently the amount of phosphorylated substrate was evaluated by measurement of the resonance energy transfer from the Eu-chelate to the streptavidine-XL. Therefore, the fluorescence emissions at 620 nm and 665 nm after excitation at 350 nm was measured in a TR-FRET reader, e.g. a Pherastar (BMG Labtechnologies, Offenburg, Germany) or a Viewlux (Perkin-Elmer). The ratio of the emissions at 665 nm and at […] was taken as the measure for the amount of phosphorylated substrate. The data were normalised (enzyme reaction without inhibitor=0% inhibition, all other assay components but no enzyme=100% inhibition).

CYCLIN K = CYCLIN K nuclear protein level: immunofluorescence/high content analysis in CAL-120 cells; assay type: cell-based, human; conditions: 24 h, nuclear CCNK staining intensity, median, read-out: CYCLIN K degradation IF, DC50 - [mol/l] (median)
Procedure: CAL-120 human breast cancer cells (DSMZ ACC 459) are seeded in 1536-well microtiter plates (800 cells per well) containing 50 nanoL of compounds in Dose-Response. Control wells received DMSO or Example 4. Plates are then incubated for 24 h at 37° C. in an humidified incubator and fixed with 4% PFA for 10 min. Then immunofluorescence (IF) against CYCLIN K (ThermoFisher Scientific CCNK Antibody #PA5-85020, rabbit, 1:200 dilution) is performed using standard IF protocols. Cells are then stained with Hoechst 33342 (Life Technologies, H-1399, 0.1 microg/ml) and imaged on an automated confocal microscopy system (e.g. Perkin Elmer Opera Phenix). Nuclear and cytoplasmic intensity as well as the nuclear/cytoplasmic intensity ratio is determined by automated image analysis using custom generated scripts (MetaXpress). Data is then transferred to Genedata Screener software, normalized to DMSO and control and DC50 values (degrading concentration to achieve 50% reduction of nuclear CCNK staining intensity relative to controls) are reported.

CAL-120-CDK12d-res = test: Proliferation assay CDK12 degrader resistant CAL-120; assay type: cell-based, human; conditions: for IC50: Homo sapiens, 96 h, CDK12 degrader resistant CAL-120 cells, 4 days, median, read-out: Prolif-CAL-120-CDK12d-res, IC50 - [mol/l] (median); for Ratio (Prolif-CAL-120-CDK12d-res IC50 / Prolif-CAL-120 IC50): resistant versus parental CAL-120 cells
Source text: CDK12-degrader resistant cells were generated by propagation of CAL-120 human breast adenocarcinoma cells (DSMZ ACC-459) and MDA-MB-231 human breast cancer cells (ATCC HTB-26) in presence of increasing concentrations of the CDK12 degrader compound example 4 from WO 2021/116178. Initial concentrations of example 4 were 2.0E-08 M for CAL-120 cells and 4.6E-08 M for MDA-MB-231 cells, corresponding to ca. 2-fold the IC50 of inhibition of the cells in an proliferation assay. After the treated cells recovered and proliferated again the concentration of compound example 4 was increased to 3-fold IC50.
To determine the inhibitory effect of test compounds on proliferation of CAL-120-CDK12d-res, MDA-MB-231-CDK12d-res the cells were plated at a density of 4,000 cells/well in a 96-well multitier plate in 200 microL of their respective growth medium supplemented 10% fetal calf serum. After 24 hours, the cells of one plate (zero-point plate) were stained with crystal violet (see below), while the medium of the other plates was supplemented with the test substances in various concentrations (0 micromol/L, as well as in the range of 0.01-10 micromol/L; the final concentration of the solvent dimethyl sulfoxide was adjusted to 0.1%) using a Tecan HP D300 Digital Dispenser. The cells were incubated for 4 days in the presence of test substances. Cell proliferation was determined by staining the cells with crystal violet: the cells were fixed by adding 20 microL/measuring point of an 11% glutaric aldehyde solution for 15 minutes at room temperature. After three washing cycles of the fixed cells with water, the plates were dried at room temperature. The cells were stained by adding 100 microL/measuring point of a 0.1% crystal violet solution (pH 3.0). After three washing cycles of the stained cells with water, the plates were dried at room temperature. The dye was dissolved by adding 100 microL/measuring point of a 10% acetic acid solution. The extinction was determined by photometry at a wavelength of 595 nm. The change of cell number, in percent, was calculated by normalization of the measured values to the extinction values of the zero-point plate (=0%) and the extinction of the untreated (0 μM) cells (=100%). The IC50 values (inhibitory concentration at 50% of maximal effect) were determined by means of a 4 parameter fit.

Compound | IC50 (CDK2/CyclinE) [µM] | DC50 (CYCLIN K) [µM] | IC50 (CAL-120-CDK12d-res) [µM] | Ratio (Prolif-CAL-120-CDK12d-res IC50 / Prolif-CAL-120 IC50) (CAL-120-CDK12d-res)
Cc1ccc(-c2nnc(CNc3nc(N4CCOCC4)nc4c(C(F)(F)F)cnn34)[nH]2)cn1 [Example 22, N-{[5-(6-methylpyridin-3-yl)-4H-1,2,4-triazol-3-yl]methyl}-2-(morpholin-4-yl)-8-(trifluoromethyl)pyrazolo[1,5-a][1,3,5]triazin-4-amine] | 3.12 |  |  | 
COc1ccc(-c2cnc(CNc3nc(N4CCOCC4)nc4c(C(F)(F)F)cnn34)[nH]2)cn1 [Example 21, N-{[5-(6-methoxypyridin-3-yl)-1H-imidazol-2-yl]methyl}-2-(morpholin-4-yl)-8-(trifluoromethyl)pyrazolo[1,5-a][1,3,5]triazin-4-amine] | 6.39 |  |  | 
FC(F)(F)Oc1ccc(-c2nnc(CNc3nc(N4CCOCC4)nc4c(C(F)(F)F)cnn34)[nH]2)cc1 [Example 5, 2-(morpholin-4-yl)-N-({5-[4-(trifluoromethoxy)phenyl]-4H-1,2,4-triazol-3-yl}methyl)-8-(trifluoromethyl)pyrazolo[1,5-a][1,3,5]triazin-4-amine] | > 20 | > 1 |  | 
FC(F)(F)c1ccc(-c2nnc(CNc3nc(N4CCOCC4)nc4c(Br)cnn34)[nH]2)cc1 [Example 1, 8-bromo-2-(morpholin-4-yl)-N-({5-[4-(trifluoromethyl)phenyl]-4H-1,2,4-triazol-3-yl}methyl)pyrazolo[1,5-a][1,3,5]triazin-4-amine] | 9.81 |  |  | 
FC(F)(F)Oc1ccc(-c2nnc(CNc3nc(N4CCOCC4)nn4c(C(F)(F)F)cnc34)[nH]2)cn1 [Example 19, 2-(morpholin-4-yl)-N-({5-[6-(trifluoromethoxy)pyridin-3-yl]-4H-1,2,4-triazol-3-yl}methyl)-7-(trifluoromethyl)imidazo[2,1-f][1,2,4]triazin-4-amine] | > 20 |  | 0.0971 | 1.5
COc1ccc(-c2nnc(CNc3nc(N4CCOCC4)nn4c(C(F)(F)F)cnc34)[nH]2)cn1 [Example 18, N-{[5-(6-methoxypyridin-3-yl)-4H-1,2,4-triazol-3-yl]methyl}-2-(morpholin-4-yl)-7-(trifluoromethyl)imidazo[2,1-f][1,2,4]triazin-4-amine] |  | > 1 | 0.252 | 2.4
FC(F)(F)c1ccc(-c2cnc(CNc3nc(N4CCOCC4)nc4c(C(F)(F)F)cnn34)[nH]2)cn1 [Example 24, 2-(morpholin-4-yl)-8-(trifluoromethyl)-N-({5-[6-(trifluoromethyl)pyridin-3-yl]-1H-imidazol-2-yl}methyl)pyrazolo[1,5-a][1,3,5]triazin-4-amine] |  | > 1 | 0.0407 | 1.3
FC(F)(F)c1ccc(-c2cnc(CNc3nc(N4CCOCC4)nc4c(C(F)(F)F)cnn34)[nH]2)cc1 [Example 9, 2-(morpholin-4-yl)-8-(trifluoromethyl)-N-({5-[4-(trifluoromethyl)phenyl]-1H-imidazol-2-yl}methyl)pyrazolo[1,5-a][1,3,5]triazin-4-amine] | > 20 |  | 0.105 | 1.0
FC(F)(F)c1ccc(-c2cnc(CNc3nc(N4CCOCC4)nc4c(Br)cnn34)[nH]2)cc1 [Example 3, 8-bromo-2-(morpholin-4-yl)-N-({5-[4-(trifluoromethyl)phenyl]-1H-imidazol-2-yl}methyl)pyrazolo[1,5-a][1,3,5]triazin-4-amine] | 7.92 |  |  | 
FC(F)(F)Oc1ccc(-c2cnc(CNc3nc(N4CCOCC4)nc4c(Br)cnn34)[nH]2)cc1 [Example 4, 8-bromo-2-(morpholin-4-yl)-N-({5-[4-(trifluoromethoxy)phenyl]-1H-imidazol-2-yl}methyl)pyrazolo[1,5-a][1,3,5]triazin-4-amine] | 10.4 |  |  | 
FC(F)(F)c1ccc(-c2cnc(CNc3nc(N4CCOCC4)nn4c(C(F)(F)F)cnc34)[nH]2)cc1 [Example 7, 2-(morpholin-4-yl)-7-(trifluoromethyl)-N-({5-[4-(trifluoromethyl)phenyl]-1H-imidazol-2-yl}methyl)imidazo[2,1-f][1,2,4]triazin-4-amine] | > 20 |  | 0.112 | 1.1
FC(F)(F)Oc1ccc(-c2nnc(CNc3nc(N4CCOCC4)nc4c(Br)cnn34)[nH]2)cc1 [Example 2, 8-bromo-2-(morpholin-4-yl)-N-({5-[4-(trifluoromethoxy)phenyl]-4H-1,2,4-triazol-3-yl}methyl)pyrazolo[1,5-a][1,3,5]triazin-4-amine] | 11.2 |  |  | 
FC(F)(F)c1ccc(-c2cnc(CNc3nc(N4CCOCC4)nn4c(C(F)(F)F)cnc34)[nH]2)cn1 [Example 12, 2-(morpholin-4-yl)-7-(trifluoromethyl)-N-({5-[6-(trifluoromethyl)pyridin-3-yl]-1H-imidazol-2-yl}methyl)imidazo[2,1-f][1,2,4]triazin-4-amine] | > 20 |  | 0.0221 | 1.5
FC(F)(F)Oc1ccc(-c2nnc(CNc3nc(N4CCOCC4)nn4c(C(F)(F)F)cnc34)[nH]2)cc1 [Example 14, 2-(morpholin-4-yl)-N-({5-[4-(trifluoromethoxy)phenyl]-4H-1,2,4-triazol-3-yl}methyl)-7-(trifluoromethyl)imidazo[2,1-f][1,2,4]triazin-4-amine] | > 20 |  |  | 
